Laboratory results reported in paper PMC8010095, “Discovery of novel antituberculosis agents among 3-phenyl-5-(1-phenyl-1H-[1,2,3]triazol-4-yl)-[1,2,4]oxadiazole derivatives targeting aminoacyl-tRNA synthetases” (Scientific Reports, 2021).
Where two headings read alike, the source gives them in different places.

What was measured:
[1] = system: Mycobacterium avium (ATCC 700,891 MAC 101); experiment: microbe, parasite or virus in culture; type: cell-based; conditions: > 80% reduction in growth, screened at 20, 2 and 0.2 mg/L, 7H9 complete medium
[2] = target: T1, M. tuberculosis methionyl-tRNA synthetase (MetRS) (Mycobacterium tuberculosis, UniProt P9WFU5); experiment: biochemical; type: biochemical
T1 construct: made in house; host or cells: Escherichia coli

[3] = system: Mycobacterium abscessus (ATCC 19,977); experiment: microbe, parasite or virus in culture; type: cell-based; conditions: > 80% reduction in growth, screened at 20, 2 and 0.2 mg/L, 7H9 complete medium
M. tuberculosis H37Rv = experiment: microbe, parasite or virus in culture; type: cell-based; conditions: > 80% reduction in growth, screened at 20, 2 and 0.2 mg/L, 7H9 complete medium
[4] = target: T2, M. tuberculosis leucyl-tRNA synthetase (LeuRS) (Mycobacterium tuberculosis, UniProt P9WFV1); experiment: biochemical; type: biochemical
T2 construct: made in house; host or cells: Escherichia coli

[5] = recombinant enzyme, mean ± spread (n in brackets), negative = activation

T2 sequence (P9WFV1 whole entry): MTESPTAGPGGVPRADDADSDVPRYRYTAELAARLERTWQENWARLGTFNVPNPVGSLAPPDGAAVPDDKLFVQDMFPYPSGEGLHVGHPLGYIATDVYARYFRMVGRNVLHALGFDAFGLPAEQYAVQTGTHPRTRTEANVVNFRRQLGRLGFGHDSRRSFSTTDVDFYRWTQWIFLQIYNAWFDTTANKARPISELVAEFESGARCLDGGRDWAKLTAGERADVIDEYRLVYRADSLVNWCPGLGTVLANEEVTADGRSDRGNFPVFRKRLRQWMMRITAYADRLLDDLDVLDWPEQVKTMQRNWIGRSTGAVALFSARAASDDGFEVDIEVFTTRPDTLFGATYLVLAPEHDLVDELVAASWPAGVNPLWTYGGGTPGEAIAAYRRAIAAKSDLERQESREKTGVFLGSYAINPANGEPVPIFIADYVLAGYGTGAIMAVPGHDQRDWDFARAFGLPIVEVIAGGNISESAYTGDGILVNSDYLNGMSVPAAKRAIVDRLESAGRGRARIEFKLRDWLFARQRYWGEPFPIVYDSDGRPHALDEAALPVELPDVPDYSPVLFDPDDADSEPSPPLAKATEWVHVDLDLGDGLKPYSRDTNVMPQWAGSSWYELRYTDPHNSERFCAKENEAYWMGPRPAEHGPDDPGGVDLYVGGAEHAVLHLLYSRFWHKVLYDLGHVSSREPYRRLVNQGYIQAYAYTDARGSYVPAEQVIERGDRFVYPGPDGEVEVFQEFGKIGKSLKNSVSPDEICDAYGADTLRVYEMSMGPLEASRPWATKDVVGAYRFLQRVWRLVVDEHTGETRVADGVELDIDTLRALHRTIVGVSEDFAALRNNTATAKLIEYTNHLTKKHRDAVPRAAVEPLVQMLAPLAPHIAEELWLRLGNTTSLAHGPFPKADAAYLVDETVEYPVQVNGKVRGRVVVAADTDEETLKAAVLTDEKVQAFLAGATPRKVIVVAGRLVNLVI
T1 sequence (P9WFU5 whole entry): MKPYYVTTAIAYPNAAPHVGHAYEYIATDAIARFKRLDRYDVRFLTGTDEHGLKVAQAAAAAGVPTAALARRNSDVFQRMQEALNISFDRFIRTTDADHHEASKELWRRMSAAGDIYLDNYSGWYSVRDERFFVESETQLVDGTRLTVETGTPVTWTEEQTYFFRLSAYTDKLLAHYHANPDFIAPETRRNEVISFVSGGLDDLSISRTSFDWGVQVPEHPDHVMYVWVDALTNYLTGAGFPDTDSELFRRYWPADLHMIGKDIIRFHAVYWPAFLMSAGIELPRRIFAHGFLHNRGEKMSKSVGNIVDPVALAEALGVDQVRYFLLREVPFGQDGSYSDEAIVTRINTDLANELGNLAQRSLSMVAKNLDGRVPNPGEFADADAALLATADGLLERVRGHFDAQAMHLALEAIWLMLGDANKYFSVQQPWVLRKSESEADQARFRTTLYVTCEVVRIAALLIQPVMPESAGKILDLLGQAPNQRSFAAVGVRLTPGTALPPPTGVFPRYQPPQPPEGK

Row | SMILES | Growth inhibition cutoff, M. avium 700,891 (MAC 101) [1] [mg/L] | MetRS inhibition activity, % [2, 5] | Growth inhibition cutoff, M. abscessus 19,977 [3] [mg/L] | Growth inhibition cutoff, H37Rv (M. tuberculosis H37Rv) [mg/L] | LeuRS inhibition activity, % [4, 5] | further results
1 | CCOc1ccc(-c2noc(-c3nnn(-c4ccc(F)c(Cl)c4)c3N)n2)cc1 [Compound 41] | > 20 | 59 ± 22 (2) % | > 20 | > 20 | – | –
2 | COc1ccc(OC)c(-n2nnc(-c3nc(-c4ccc(F)cc4)no3)c2N)c1 [Compound 29] | > 20 | 14 ± 14 (2) % | > 20 | > 20 | – | –
3 | CCc1ccc(-n2nnc(-c3nc(-c4ccc(F)cc4)no3)c2N)cc1 [Compound 14] | > 20 | 41 ± 10 (3) % | > 20 | > 20 | 31 ± 7 (2) % | –
4 | Nc1c(-c2nc(-c3ccc(Br)cc3)no2)nnn1-c1ccc(F)cc1 [Compound 32] | > 20 | 46 ± 32 (2) % | > 20 | > 20 | – | –
5 | Nc1c(-c2nc(-c3ccc(F)cc3)no2)nnn1-c1ccc(Br)cc1 [Compound 11] | > 20 | – | > 20 | > 20 | – | –
6 | Nc1c(-c2nc(-c3ccc(F)cc3)no2)nnn1-c1ccc(F)cc1F [Compound 22] | > 20 | 59 ± 9 (2) % | > 20 | > 20 | – | –
7 | CCOc1ccc(-c2noc(-c3nnn(-c4ccccc4Cl)c3N)n2)cc1 [Compound 40] | > 20 | 22 ± 14 (2) % | > 20 | > 20 | 36 ± 16 (3) % | –
8 | COc1ccccc1-n1nnc(-c2nc(-c3ccc(Br)cc3)no2)c1N [Compound 35] | > 20 | 61 ± 47 (3) % | > 20 | > 20 | – | –
9 | Nc1c(-c2nc(-c3ccc(F)cc3)no2)nnn1-c1ccccc1F [Compound 23] | > 20 | 7 ± 13 (2) % | > 20 | > 20 | 5 ± 7 (2) % | –
10 | Cc1c(-c2nc(-c3ccccc3F)no2)nnn1-c1ccc(F)c(Cl)c1 [Compound 4] | > 20 | – | > 20 | > 20 | 11 ± 8 (3) % | –
11 | Nc1c(-c2nc(-c3ccccc3)no2)nnn1-c1ccccc1F [Compound 1] | > 20 | – | > 20 | > 20 | – | –
12 | CCOc1ccccc1-n1nnc(-c2nc(-c3ccc(F)cc3)no2)c1N [Compound 30] | > 20 | 19 ± 0.9 (2) % | > 20 | > 20 | – | –
13 | Cc1cccc(-n2nnc(-c3nc(-c4ccc(F)cc4)no3)c2N)c1 [Compound 18] | > 20 | 26 ± 20 (2) % | > 20 | > 20 | 13 ± 11 (2) % | –
14 | CCOc1ccc(-c2noc(-c3nnn(-c4ccccc4F)c3N)n2)cc1 [Compound 39] | > 20 | 35 ± 6 (2) % | > 20 | > 20 | – | –
15 | CCOc1ccccc1-n1nnc(-c2nc(-c3ccc(Br)cc3)no2)c1N [Compound 36] | > 20 | 25 ± 5 (2) % | > 20 | > 20 | – | –
16 | Cc1c(-c2nc(-c3ccccc3Cl)no2)nnn1-c1cccc(F)c1 [Compound 7] | > 20 | – | > 20 | > 20 | 71 ± 5 (2) % | –
17 | Nc1c(-c2nc(-c3ccc(F)cc3)no2)nnn1-c1ccccc1 [Compound 9] | > 20 | 30 ± 2 (2) % | > 20 | > 20 | 1 ± 8 (2) % | –

Row | SMILES | Growth inhibition cutoff, M. avium 700,891 (MAC 101) [1] [mg/L] | MetRS inhibition activity, % [2, 5] | Growth inhibition cutoff, M. abscessus 19,977 [3] [mg/L] | Growth inhibition cutoff, H37Rv (M. tuberculosis H37Rv) [mg/L] | LeuRS inhibition activity, % [4, 5] | further results
18 | Nc1c(-c2nc(-c3ccc(F)cc3)no2)nnn1-c1ccc(Cl)cc1 [Compound 10] | > 20 | 23 ± 25 (3) % | > 20 | > 20 | – | –
19 | Nc1c(-c2nc(-c3ccc(Br)cc3)no2)nnn1-c1cccc(F)c1 [Compound 33] | > 20 | 55 ± 4 (2) % | > 20 | > 20 | – | –
20 | Cc1c(-c2nc(-c3ccccc3F)no2)nnn1-c1cc(F)ccc1F [Compound 6] | > 20 | – | > 20 | > 20 | – | –
21 | Nc1c(-c2nc(-c3ccc(F)cc3)no2)nnn1-c1cccc(Cl)c1 [Compound 16] | > 20 | 47 ± 19 (2) % | > 20 | > 20 | – | –
22 | COc1ccccc1-n1nnc(-c2nc(-c3ccc(F)cc3)no2)c1N [Compound 26] | > 20 | – | > 20 | > 20 | – | –
23 | COc1ccc(-c2noc(-c3nnn(-c4cc(Cl)ccc4OC)c3N)n2)cc1 [Compound 37] | > 20 | – | > 20 | > 20 | – | –
24 | COc1cccc(-n2nnc(-c3nc(-c4ccc(F)cc4)no3)c2N)c1 [Compound 20] | > 20 | 37 ± 17 (3) % | > 20 | > 20 | 29 ± 25 (2) % | –
25 | Nc1c(-c2nc(-c3ccc(F)cc3)no2)nnn1-c1cccc(C(F)(F)F)c1 [Compound 19] | > 20 | 53 ± 0.7 (2) % | > 20 | > 20 | – | –
26 | Nc1c(-c2nc(-c3ccc(Cl)cc3)no2)nnn1-c1ccc(Br)cc1F [Compound 31] | > 20 | 70 ± 19 (2) % | > 20 | > 20 | 15 ± 11 (2) % | –
27 | COc1ccc(C)cc1-n1nnc(-c2nc(-c3ccc(F)cc3)no2)c1N [Compound 28] | > 20 | 37 ± 3 (2) % | > 20 | > 20 | – | –
28 | Cc1ccccc1-c1noc(-c2nnn(-c3ccc(Br)cc3)c2C)n1 [Compound 8] | > 20 | – | > 20 | > 20 | 18 ± 4 (2) % | –
29 | COc1ccc(-n2nnc(-c3nc(-c4ccc(F)cc4)no3)c2N)cc1OC [Compound 21] | > 20 | – | > 20 | > 20 | – | –
30 | Nc1c(-c2nc(-c3ccc(F)cc3)no2)nnn1-c1cccc(F)c1 [Compound 15] | > 20 | – | > 20 | > 20 | – | –
31 | COc1ccc(-n2nnc(-c3nc(-c4ccc(F)cc4)no3)c2N)cc1 [Compound 13] | – | – | – | – | – | MIC ([1]; Mycobacterium avium, ATCC700, read-out: Growth inhibition cutoff, M. avium 700,891 (MAC 101)): > 20 µg/mL; MetRS inhibition activity, % [2]: 36 ± 5 (2) %; IC50 ([2]; mean ± s.d. (n = 3)): 122 ± 26 µM; LeuRS inhibition activity, % [4]: 79 ± 7 (2) %; IC50 ([4]; mean ± s.d. (n = 3)): 263.5 ± 0.7 µM; MIC ([3]; Mycobacteroides abscessus, ATCC19, read-out: Growth inhibition cutoff, M. abscessus 19,977): > 20 µg/mL; MIC (M. tuberculosis H37Rv; Mycobacterium tuberculosis, H37RV, read-out: Growth inhibition cutoff, H37Rv): > 20 µg/mL
32 | Cc1c(-c2nc(-c3ccccc3F)no2)nnn1-c1ccc(Br)cc1 [Compound 5] | > 20 | – | > 20 | > 20 | 17 ± 10 (2) % | –
33 | COc1ccc(-c2noc(-c3nnn(-c4ccc(Cl)cc4)c3C)n2)cc1OC [Compound 38] | > 20 | 25 ± 18 (2) % | > 20 | > 20 | – | –
